These results are taken from ChEMBL document CHEMBL4814079, “Structure-Activity Relationship for the Picolinamide Antibacterials that Selectively Target Clostridioides difficile” (ACS Med Chem Lett, 2021).

Molecules are shown by their SMILES. Values after ≈ are worked out from the molar mass of the structure shown.

For data set [1], the system named is HeLa. Kind of data set: Cytotoxicity against human HeLa cells assessed as reduction in cell viability incubated for 16 hrs by XTT assay. In kind it is cell-based.
Data set [2] concerns Clostridioides difficile. In words: Antibacterial activity against Clostridium difficile ATCC 43255 assessed as reduction in bacterial growth measured after 48 hrs by CLSI based broth microdilution method. In kind it is functional.
Data set [3] relates to Staphylococcus aureus. Kind of data set: Antibacterial activity against […] Staphylococcus aureus ATCC 29213 assessed as reduction in bacterial growth measured after 48 hrs by CLSI based broth microdilution method. The data set is classed as functional.
Data set [4] has as its system Enterococcus faecium. Kind of data set: Antibacterial activity against Enterococcus faecium ATCC 19434 assessed as reduction in bacterial growth measured after 48 hrs by CLSI based broth microdilution method. In kind it is functional.
For data set [5], the system named is Bacteroides fragilis. Kind of data set: Antibacterial activity against gut Bacteroides fragilis HM-709 assessed as reduction in bacterial growth measured after 48 hrs by CLSI based broth microdilution method. The data set is classed as organism-based. As to conditions: in vitro.
In data set [6] the test system is Bifidobacterium longum. Kind of data set: Antibacterial activity against gut Bifidobacterium longum HM-846 assessed as reduction in bacterial growth measured after 48 hrs by CLSI based broth microdilution method. The data set is classed as organism-based.
The test system of data set [7] is Corynebacterium. In words: Antibacterial activity against gut Corynebacterium HM-784 assessed as reduction in bacterial growth measured after 48 hrs by CLSI based broth microdilution method. The data set is classed as organism-based.
Data set [8] concerns Fusobacterium nucleatum. Kind of data set: Antibacterial activity against gut Fusobacterium nucleatum HM-992 assessed as reduction in bacterial growth measured after 48 hrs by CLSI based broth microdilution method. In kind it is organism-based. To be noted: in vitro.
Data set [9] can be described thus: Antibacterial activity against gut Limosilactobacillus-reuteri HM-102 assessed as reduction in bacterial growth measured after 48 hrs by CLSI based broth microdilution method.
The subject of data set [10] is Lactobacillus gasseri. In words: Antibacterial activity against gut Lactobacillus gasseri HM-664 assessed as reduction in bacterial growth measured after 48 hrs by CLSI based broth microdilution method. In kind it is organism-based. To be noted: in vitro.
Data set [11] concerns Veillonella. Kind of data set: Antibacterial activity against gut Veillonella sp HM-49 assessed as reduction in bacterial growth measured after 48 hrs by CLSI based broth microdilution method. In kind it is organism-based. As to conditions: in vitro.
Data set [12] concerns Eubacterium sp. In words: Antibacterial activity against gut Eubacterium sp. HM-178 assessed as reduction in bacterial growth measured after 48 hrs by CLSI based broth microdilution method. The data set is classed as organism-based.
Data set [13] is described as follows: Drug excretion in CD1 mouse feces at 20 mg/kg, po measured upto 8 hrs by LC-MS/MS analysis. As to conditions: in vivo. In kind it is ADME, organism-based.
The nature of data set [14]: Plasma concentration in CD1 mouse at 20 mg/kg, po measured upto 8 hrs by LC-MS/MS analysis. The data set is classed as ADME, organism-based. To be noted: in vivo, BLD = below limit of detection.
The nature of data set [15]: Ratio of drug excretion in CD-1 mouse feces to MIC for antibacterial activity against Clostridium difficile ATCC 43255. In kind it is toxicity. As to conditions: in vivo.
The nature of data set [16]: Selectivity index, ratio of MIC of […] Staphylococcus aureus ATCC 29213 to MIC of Clostridium difficile ATCC 43255. The data set is classed as functional.
The subject of data set [17] is HeLa. In words: Cytotoxicity against human HeLa cells assessed as reduction in cell viability at 64 ug/ml incubated for 16 hrs by XTT assay. In kind it is cell-based. As to conditions: dose 64 µg/ml.
The subject of data set [18] is HeLa. Kind of data set: Cytotoxicity against human HeLa cells assessed as reduction in cell viability at 128 ug/ml incubated for 16 hrs by XTT assay. To be noted: dose 128 µg/ml. In kind it is cell-based.
Data set [19] concerns HeLa. Kind of data set: Cytotoxicity against human HeLa cells assessed as reduction in cell viability at 256 ug/ml incubated for 16 hrs by XTT assay. The data set is classed as cell-based. To be noted: dose 256 µg/ml.
The nature of data set [20]: Drug excretion in CD1 mouse feces at 10 mg/kg, po measured upto 8 hrs by LC-MS/MS analysis. In kind it is ADME, organism-based. To be noted: in vivo.
Data set [21] in a line: Plasma concentration in CD1 mouse at 10 mg/kg, po measured upto 8 hrs by LC-MS/MS analysis. The data set is classed as ADME, organism-based. To be noted: in vivo, BLD = below limit of detection.

With `O=C(Nc1ncco1)c1ccnc(-c2ccc(Cl)c(Cl)c2)c1`, the IC50 in [1] amounted to 79.9 µM. For the same compound, the MIC in [2] was 0.25 µg/mL (≈ 0.748 µM); in data set [3], 25 µg/mL (≈ 74.8 µM); in [4], 0.06 µg/mL (≈ 0.18 µM); in data set [5], 1 µg/mL (≈ 2.99 µM); in [6] it was above 16 µg/mL; in [7], 0.5 µg/mL (≈ 1.5 µM). In addition, the MIC in data set [8] is 8 µg/mL (≈ 23.9 µM); in [9], 8 µg/mL (≈ 23.9 µM); in data set [10], above 16 µg/mL; in data set [11] it was 4 µg/mL (≈ 12 µM); in data set [12], above 16 µg/mL. In [13], this compound registered a Drug excretion of 2.8 µg/g. For the same compound, the Cp entry in data set [14] is “Bld”. Moreover, in data set [15], the Ratio is 11.

In the case of `O=C(Nc1ncco1)c1cc(-c2cccc(F)c2)ccn1`, the MIC turned out to be 0.5 µg/mL (≈ 1.77 µM) in data set [2] and 64 µg/mL (≈ 226 µM) in data set [3]. For the same compound, the Ratio in data set [16] worked out at 128. The Activity entry in data set [17] was “Non-Toxic”.

Turning to `O=C([O-])c1ccc2oc(NC(=O)c3cc(Oc4ccc(F)c(F)c4)ccn3)nc2c1.[Na+]`, the MIC in data set [2] came to 0.5 µg/mL; in data set [3], 64 µg/mL. Moreover, in [18], the Activity result is listed as “Non-Toxic”. In data set [13], this compound gave a Drug excretion of 3.7 µg/g. Further, in data set [14], the Cp entry is recorded as “Bld”. Further, the Ratio in data set [15] is 7.4.

On to `O=C(Nc1ncco1)c1cc(-c2ccc(F)c(F)c2)ccn1`, for which the MIC came out at 0.5 µg/mL (≈ 1.66 µM) in data set [2] and 128 µg/mL (≈ 425 µM) in data set [3]. Besides, in [16], the Ratio worked out at 256. Also, the Activity result in data set [17] is “Non-Toxic”.

`O=C(Nc1ncco1)c1cc(-c2ccc(Cl)c(F)c2)ccn1`: the MIC in data set [2] was 0.25 µg/mL (≈ 0.787 µM); in data set [3] it was 128 µg/mL (≈ 403 µM). Also, the Ratio in data set [16] worked out at 512. For the same compound, in data set [19], the Activity entry is “Non-Toxic”.

For the compound `O=C(Nc1ncco1)c1cc(-c2ccc(Cl)c(Cl)c2)ccn1`, the IC50 in data set [1] turned out to be 95.2 µg/mL. Moreover, the MIC in data set [2] is 0.125 µg/mL (≈ 0.374 µM); in data set [3], 128 µg/mL (≈ 383 µM); in data set [4], at least 128 µg/mL; in data set [5], 4 µg/mL (≈ 12 µM); in [6] it was above 16 µg/mL; in data set [7], 16 µg/mL (≈ 47.9 µM). In addition, the MIC is 8 µg/mL (≈ 23.9 µM) in data set [8]; 4 µg/mL (≈ 12 µM) in [9]; above 16 µg/mL in data set [10]; 16 µg/mL (≈ 47.9 µM) in data set [11]; 8 µg/mL (≈ 23.9 µM) in [12]. Also, the Ratio was found to be 1024 in data set [16] and 6.6 in data set [15]. In data set [20], this compound yielded a Drug excretion of 0.79 µg/g. Moreover, in data set [21], the Cp entry is “Bld”.
